Results: patent US20250354195A1, “METHOD OF SCREENING” (UNIVERSITY OF DUNDEE, priority 2024, published 2025)

Molecular target: T1, GSK3β (Homo sapiens, UniProt P49841+Q96SW2)
T1 construct: genetically engineered using CRISPR/Cas9 technology to endogenously tag GSK3p protein with HiBiT tag at the C-terminus; host or cells: HEK293 cells, CRISPR/Cas9 knock-in of HiBiT at the endogenous GSK3B locus
Test: High throughput screening for GSK3β-HiBiT targeted degradation (Nano-Glo HiBiT Lytic luminescence)
Type: cell-based
Details: HEK293 cells with endogenously HiBiT-tagged GSK3β, 24 h incubation, products of one-pot plate array (FIG. 1, Method A); for DC50: 0.01-30 μM, read-out: DC50 (half-maximal degradation concentration)
Method: High throughput Screening for GSK3 β-HiBiTL: Test compounds were transferred into Echo plate (Beckman, 001-12782, Echo LDV384) using BRAVO automated liquid handling platform which serves as source plate (10 mM stocks in DMSO). Serial dilutions of the compounds were done using Echo550 liquid handler as 30 μM, 10 μM, 3 μM, 1 μM, 0.3 μM, 0.1 μM, 0.03 μM and 0.01 μM in final concentrations in assay plates. One column of each assay plate was reserved for DMSO control treatments. After compounds were serially diluted in assay plates, HEK293 cells (CRL-1573, ATCC) genetically engineered using CRISPR/Cas9 technology to endogenously tag GSK3p protein with HiBiT tag at the C-terminus (Schwinn et al., 2018, CRISPR-mediated tagging of endogenous proteins with a luminescent peptide, ACS Chem. Biol., 13(2), 467-74) were seeded at a density of 5000 cells/well in 50 μL complete media in 384-well TC-grade white plates (Perkin Elmer, Culturplate, 6007619) with the help of Multidrop Combi liquid dispenser and cells were incubated for 24 h with compounds at 37° C. in humidified incubators with 5% CO2. At the end of the treatment, equal volume of Nano-Glo HiBiT Lytic reagent (Promega N3030) supplied with Nano-Glo HiBiT Lytic substrate and LgBiT Protein were added into each well according to manufacturer's instructions, and cells were incubated on an orbital shaker for 15 seconds and for a further 15 minutes at room temperature. Luminescence signals were measured in an appropriate plate reader (PHERAstar FSX, BMG Labtech) (Dixon et al., 2016, NanoLuc complementation reporter optimized for accurate measurement of protein interactions in cells, ACS Chem. Biol., 11, 400-8). Changes in protein abundance upon compound treatment were further analysed by normalising raw luminescence values to DMSO values and fold changes were plotted using for parameter logistic regression with GraphPad Prism (10.1.2).
Furthermore, the present investigators have shown that bifunctional compounds manufactured using the method of the present disclosure may be effective in the uses of bifunctional compounds, for example as PROTACs in targeted protein degradation (TPD). […] GSK3p was targeted for degradation using a binder for GSK3p, and a binder for CRBN; the binders were comprised in molecules comprising moieties for reacting with the orthogonally reactive moieties of the linker. […] The “identifier” identifies the well of the multi-well plate that has been sampled, e.g., AHD2B-1-A1 relates to the top left well in FIG. 1. The DC50 provides an indication of the potency of the bifunctional compound in targeted degradation; Dmax provides an indication of the maximum possible degradation. The use of these metrics is further described in Flexible Fitting of PROTAC Concentration-Response Curves with Changepoint Gaussian Processes, Semenova et al., SLAS Discovery, 2021, 26, 1212-1224.

T1 sequence (P49841 whole entry): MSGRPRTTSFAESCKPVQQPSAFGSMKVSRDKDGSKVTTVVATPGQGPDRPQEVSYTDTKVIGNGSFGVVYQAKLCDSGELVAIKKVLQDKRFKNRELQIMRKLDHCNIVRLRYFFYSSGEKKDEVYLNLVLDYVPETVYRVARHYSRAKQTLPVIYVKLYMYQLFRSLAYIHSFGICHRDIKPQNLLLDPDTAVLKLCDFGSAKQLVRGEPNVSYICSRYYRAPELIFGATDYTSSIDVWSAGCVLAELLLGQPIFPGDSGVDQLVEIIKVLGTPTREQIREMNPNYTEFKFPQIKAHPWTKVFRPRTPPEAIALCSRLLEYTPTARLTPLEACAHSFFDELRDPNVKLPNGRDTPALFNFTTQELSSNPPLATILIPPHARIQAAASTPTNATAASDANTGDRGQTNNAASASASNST
T1 sequence (Q96SW2 whole entry): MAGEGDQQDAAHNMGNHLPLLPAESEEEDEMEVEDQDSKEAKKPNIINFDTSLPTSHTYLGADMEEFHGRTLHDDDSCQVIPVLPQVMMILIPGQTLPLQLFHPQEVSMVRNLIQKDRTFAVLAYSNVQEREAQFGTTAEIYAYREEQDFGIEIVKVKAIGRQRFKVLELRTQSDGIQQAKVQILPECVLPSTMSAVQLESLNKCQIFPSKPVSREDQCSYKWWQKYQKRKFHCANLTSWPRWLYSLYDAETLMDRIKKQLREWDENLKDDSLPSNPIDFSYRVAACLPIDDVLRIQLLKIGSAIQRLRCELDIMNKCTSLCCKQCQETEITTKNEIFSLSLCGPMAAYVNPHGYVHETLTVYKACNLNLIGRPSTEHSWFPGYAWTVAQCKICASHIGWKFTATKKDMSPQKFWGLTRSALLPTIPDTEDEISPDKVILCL
T1 sequence (Q16531 whole entry partner): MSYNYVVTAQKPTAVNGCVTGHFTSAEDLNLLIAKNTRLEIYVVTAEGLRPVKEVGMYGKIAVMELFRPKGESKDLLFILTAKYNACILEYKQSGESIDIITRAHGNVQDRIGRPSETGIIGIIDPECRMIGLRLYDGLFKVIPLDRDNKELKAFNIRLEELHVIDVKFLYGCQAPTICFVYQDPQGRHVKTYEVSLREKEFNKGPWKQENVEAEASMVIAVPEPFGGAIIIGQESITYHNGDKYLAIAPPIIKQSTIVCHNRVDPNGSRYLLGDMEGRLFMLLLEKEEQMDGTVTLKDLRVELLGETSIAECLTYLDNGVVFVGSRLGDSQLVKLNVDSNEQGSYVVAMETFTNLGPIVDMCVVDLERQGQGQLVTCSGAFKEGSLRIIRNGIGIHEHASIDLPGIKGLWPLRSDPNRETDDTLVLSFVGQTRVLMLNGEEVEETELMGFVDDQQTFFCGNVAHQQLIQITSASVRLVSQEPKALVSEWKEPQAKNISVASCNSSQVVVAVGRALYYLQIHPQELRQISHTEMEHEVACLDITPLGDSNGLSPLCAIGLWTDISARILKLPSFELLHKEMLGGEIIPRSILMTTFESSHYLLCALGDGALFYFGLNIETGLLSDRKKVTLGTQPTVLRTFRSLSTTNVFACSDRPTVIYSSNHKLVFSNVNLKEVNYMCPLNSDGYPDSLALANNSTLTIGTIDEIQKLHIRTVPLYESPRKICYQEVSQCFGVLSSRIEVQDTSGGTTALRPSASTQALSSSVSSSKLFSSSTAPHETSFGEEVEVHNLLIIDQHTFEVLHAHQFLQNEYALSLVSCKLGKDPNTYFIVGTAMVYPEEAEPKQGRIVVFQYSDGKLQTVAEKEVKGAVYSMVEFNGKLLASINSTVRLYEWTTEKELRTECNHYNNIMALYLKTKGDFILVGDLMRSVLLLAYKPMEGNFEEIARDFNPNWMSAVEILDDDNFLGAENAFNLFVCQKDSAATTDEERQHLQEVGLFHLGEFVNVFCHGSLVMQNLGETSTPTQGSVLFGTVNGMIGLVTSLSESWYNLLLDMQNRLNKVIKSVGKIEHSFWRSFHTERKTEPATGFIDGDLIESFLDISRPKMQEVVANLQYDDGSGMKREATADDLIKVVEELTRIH

Structure (SMILES)	DC50	Dmax (maximal effect)
COc1ccc(-c2ocnc2C(=O)NCCCn2cc(-c3cccc(CN4CCN(Cc5ccc(N6CCC(=O)NC6=O)cc5)CC4)n3)nn2)cc1Cl [AHD2B-1-G8]	> 10 µM	<30%
COc1ccc(-c2ocnc2C(=O)NCCCn2cc(COC3CCN(Cc4cccc(N5CCC(=O)NC5=O)c4)CC3)nn2)cc1Cl [AHD2B-1-A5]	> 10 µM	<30%
COc1ccc(-c2ocnc2C(=O)NCCCn2cc(CCCCN3CCN(Cc4ccc(C(=O)NC5CCC(=O)NC5=O)nc4)CC3)nn2)cc1Cl (stereo not drawn) [AHD2B-1-F1]	> 10 µM	<30%
COc1ccc(-c2ocnc2C(=O)NCCCn2cc(CCCCCN3CCCN(Cc4ccc(N5CCC(=O)NC5=O)cc4)CC3)nn2)cc1Cl [AHD2B-1-G9]	> 10 µM	<30%
COc1ccc(-c2ocnc2C(=O)NCCCn2cc(-c3ccc(CN4CCN(CC(=O)N[C@H](C(=O)N5C[C@H](O)C[C@H]5C(=O)NCc5ccc(-c6scnc6C)cc5)C(C)(C)C)CC4)cn3)nn2)cc1Cl [AHD2B-1-B2]	> 10 µM	<30%
COc1ccc(-c2ocnc2C(=O)NCCCn2cc(COc3ccc(CN4CCN(Cc5ccc(C(=O)NC6CCC(=O)NC6=O)nc5)CC4)cc3)nn2)cc1Cl (stereo not drawn) [AHD2B-1-F3]	> 10 µM	<30%
COc1ccc(-c2ocnc2C(=O)NCCCn2cc(COc3ccc(CN4CC5(C4)CN(Cc4ccc(C(=O)NC6CCC(=O)NC6=O)nc4)C5)cc3)nn2)cc1Cl (stereo not drawn) [AHD2B-1-F11]	> 10 µM	<30%
COc1ccc(-c2ocnc2C(=O)NCCCn2cc(CCCCCN3CCCN(CC(=O)N[C@H](C(=O)N4C[C@H](O)C[C@H]4C(=O)NCc4ccc(-c5scnc5C)cc4)C(C)(C)C)CC3)nn2)cc1Cl [AHD2B-1-B9]	> 10 µM	<30%
COc1ccc(-c2ocnc2C(=O)NCCCn2cc(COC3CCN(Cc4ccc5c(N6CCC(=O)NC6=O)nn(C)c5c4)CC3)nn2)cc1Cl [AHD2B-1-D5]	0.55 µM	35%
COc1ccc(-c2ocnc2C(=O)NCCCn2cc(CCCCN3CCN(Cc4ccc5c(N6CCC(=O)NC6=O)nn(C)c5c4)CC3)nn2)cc1Cl [AHD2B-1-D1]	2.1 µM	49%
COc1ccc(-c2ocnc2C(=O)NCCCn2cc(-c3cccc(CN4CCN(Cc5ccc(C(=O)NC6CCC(=O)NC6=O)c(F)c5)CC4)n3)nn2)cc1Cl (stereo not drawn) [AHD2B-1-C8]	> 10 µM	<30%
COc1ccc(-c2ocnc2C(=O)NCCCn2cc(CCCOc3ccc(CN4CCN(Cc5ccc(C(=O)NC6CCC(=O)NC6=O)c(F)c5)CC4)cc3)nn2)cc1Cl (stereo not drawn) [AHD2B-1-C4]	< 0.25 µM	53%
COc1ccc(-c2ocnc2C(=O)NCCCn2cc(CCCN3CCN(Cc4ccc(C(=O)NC5CCC(=O)NC5=O)c(F)c4)CC3)nn2)cc1Cl (stereo not drawn) [AHD2B-1-C12]	> 10 µM	<30%
COc1ccc(-c2ocnc2C(=O)NCCCn2cc(COC3CCN(Cc4ccc(N5CCC(=O)NC5=O)cc4)CC3)nn2)cc1Cl [AHD2B-1-G5]	> 10 µM	<30%
COc1ccc(-c2ocnc2C(=O)NCCCn2cc(COc3ccc(CN4CCN(Cc5cccc(N6CCC(=O)NC6=O)c5)CC4)cc3)nn2)cc1Cl [AHD2B-1-A3]	> 10 µM	<30%
COc1ccc(-c2ocnc2C(=O)NCCCn2cc(CCCOc3ccc(CN4CCN(Cc5cccc(N6CCC(=O)NC6=O)c5)CC4)cc3)nn2)cc1Cl [AHD2B-1-A4]	> 10 µM	<30%
COc1ccc(-c2ocnc2C(=O)NCCCn2cc(-c3ccc(CN4CCN(Cc5ccc(N6CCC(=O)NC6=O)cc5)CC4)cn3)nn2)cc1Cl [AHD2B-1-G2]	> 10 µM	<30%
COc1ccc(-c2ocnc2C(=O)NCCCn2cc(CCCCCN3CCCN(Cc4ccc(C(=O)NC5CCC(=O)NC5=O)c(F)c4)CC3)nn2)cc1Cl (stereo not drawn) [AHD2B-1-C9]	7.1 µM	39%
COc1ccc(-c2ocnc2C(=O)NCCCn2cc(COC3CCN(Cc4ccc(C(=O)NC5CCC(=O)NC5=O)nc4)CC3)nn2)cc1Cl (stereo not drawn) [AHD2B-1-F5]	> 10 µM	<30%
COc1ccc(-c2ocnc2C(=O)NCCCn2cc(COc3ccc(CN4CC5(C4)CN(Cc4ccc(C(=O)NC6CCC(=O)NC6=O)c(F)c4)C5)cc3)nn2)cc1Cl (stereo not drawn) [AHD2B-1-C11]	1.9 µM	56%
COc1ccc(-c2ocnc2C(=O)NCCCn2cc(CCCCCN3CCN(Cc4ccc(C(=O)NC5CCC(=O)NC5=O)nc4)CC3)nn2)cc1Cl (stereo not drawn) [AHD2B-1-F7]	> 10 µM	<30%
COc1ccc(-c2ocnc2C(=O)NCCCn2cc(CCCN3CCN(Cc4ccc(C(=O)NC5CCC(=O)NC5=O)nc4)CC3)nn2)cc1Cl (stereo not drawn) [AHD2B-1-F12]	> 10 µM	<30%
COc1ccc(-c2ocnc2C(=O)NCCCn2cc(COc3ccc(CN4CCC5(C4)CN(Cc4cccc(N6CCC(=O)NC6=O)c4)C5)cc3)nn2)cc1Cl [AHD2B-1-A6]	> 10 µM	<30%
COc1ccc(-c2ocnc2C(=O)NCCCn2cc(COCCOCCN3CCN(Cc4ccc(C(=O)NC5CCC(=O)NC5=O)nc4)CC3)nn2)cc1Cl (stereo not drawn) [AHD2B-1-F10]	> 10 µM	<30%
